From US11702422B2, “Imidazopyridazines as modulators of IL-17” (Janssen Pharmaceutica NV, priority 2020, dated 2023)

What was measured:
[1] = target: IL-17A(FLAG-Tagged): IL-17RA(His-Tagged) (Homo sapiens, UniProt Q16552, K93Q); assay: IL-17A(FLAG-Tagged): IL-17RA(His-Tagged) Binding Disruption Eu-HTRF Assay; details: IL-17A/IL-17RA binding disruption, simple average if tested more than once
In short: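 IC50 comes from a one-site competition fit of the HTRF 665/620 nm ratio. Compound dilutions (2-fold, 22 points) were held 1 h rt with FLAG-tagged IL-17A dimer, then His-tagged IL-17RA plus Eu-cryptate anti-FLAG and D2 anti-His antibodies were added for 2 h rt.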

[2] = test system: IL-17A-induced G-CSF production in human normal keratinocyte (NHK); assay: NHK Assay: IL-17A-induced G-CSF production in human normal keratinocytes; assay type: cell-based; details: Homo sapiens, Keratinocyte, 24 h, adult normal human keratinocytes, IL-17A 5 ng/mL, simple average if tested more than once
In short: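 Adult NHK, 3000-4000 cells/well; rhIL-17A + titrated cpd preincubated 1 h rt, then onto cells. Final: IL-17A 5 ng/mL, DMSO 0.2%, 5% FBS. 24 h, 37° C. G-CSF in supernatant by HTRF vs standard curve; IC50. Viability by CellTiter-Glo vs DMSO.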

UniProt Q16552, sequence (Q16552 with tags, fused parts or gaps K93Q): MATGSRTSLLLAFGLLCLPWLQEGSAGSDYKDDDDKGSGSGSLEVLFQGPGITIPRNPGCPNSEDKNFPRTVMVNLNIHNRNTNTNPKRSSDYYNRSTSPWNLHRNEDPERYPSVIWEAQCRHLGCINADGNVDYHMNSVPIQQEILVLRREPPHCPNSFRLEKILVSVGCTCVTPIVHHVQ

| SMILES | IC50 [1] | IC50 [2] |
| --- | --- | --- |
| O=C(CCC(F)(F)F)N[C@@H](c1cnn2cc([C@@H](NC(=O)c3cnccn3)C3CCC(F)(F)CC3)nc2c1)C1CC1 [Example 223, N—((S)-(7-((R)-Cyclopropyl(4,4,4-trifluorobutanamido)methyl)imidazo[1,2-b]pyridazin-2-yl)(4,4-difluorocyclohexyl)methyl)pyrazine-2-carboxamide] | 2900 nM | > 20000 nM |
| Cc1cccc(C(=O)N[C@H](c2cn3ncc([C@H](NC(=O)CCC(F)(F)F)C4CC4)cc3n2)C2CCC(F)(F)CC2)n1 [Example 224, N—((S)-(7-((R)-Cyclopropyl(4,4,4-trifluorobutanamido)methyl)imidazo[1,2-b]pyridazin-2-yl)(4,4-difluorocyclohexyl)methyl)-6-methylpicolinamide] | 1700 nM | > 20000 nM |
| N#Cc1ccncc1C(=O)N[C@H](c1cn2ncc([C@H](NC(=O)CCC(F)(F)F)C3CC3)cc2n1)C1CCC(F)(F)CC1 [Example 225, 4-Cyano-N—((S)-(7-((R)-cyclopropyl(4,4,4-trifluorobutanamido)methyl)imidazo[1,2-b]pyridazin-2-yl)(4,4-difluorocyclohexyl)methyl)nicotinamide] | 9500 nM | > 20000 nM |
| COc1cccc(C(=O)N[C@H](c2cn3ncc([C@H](NC(=O)CCC(F)(F)F)C4CC4)cc3n2)C2CCC(F)(F)CC2)n1 [Example 226, N—((S)-(7-((R)-Cyclopropyl(4,4,4-trifluorobutanamido)methyl)imidazo[1,2-b]pyridazin-2-yl)(4,4-difluorocyclohexyl)methyl)-6-methoxypicolinamide] | 2500 nM | > 20000 nM |
| CC(C)Oc1cccc(C(=O)N[C@H](c2cn3ncc([C@H](NC(=O)CCC(F)(F)F)C4CC4)cc3n2)C2CCC(F)(F)CC2)n1 [Example 227, N—((S)-(7-((R)-Cyclopropyl(4,4,4-trifluorobutanamido)methyl)imidazo[1,2-b]pyridazin-2-yl)(4,4-difluorocyclohexyl)methyl)-6-isopropoxypicolinamide] | 900 nM | 20000 nM |
| CCc1cccc(C(=O)N[C@H](c2cn3ncc([C@H](NC(=O)CCC(F)(F)F)C4CC4)cc3n2)C2CCC(F)(F)CC2)n1 [Example 228, N—((S)-(7-((R)-Cyclopropyl(4,4,4-trifluorobutanamido)methyl)imidazo[1,2-b]pyridazin-2-yl)(4,4-difluorocyclohexyl)methyl)-6-ethylpicolinamide] | 1000 nM | > 20000 nM |
| O=C(CCC(F)(F)F)N[C@@H](c1cnn2cc([C@@H](NC(=O)c3cccc(C(F)F)n3)C3CCC(F)(F)CC3)nc2c1)C1CC1 [Example 229, N—((S)-(7-((R)-Cyclopropyl(4,4,4-trifluorobutanamido)methyl)imidazo[1,2-b]pyridazin-2-yl)(4,4-difluorocyclohexyl)methyl)-6-(difluoromethyl)picolinamide] | 1200 nM | > 20000 nM |
| CC(F)(F)c1cccc(C(=O)N[C@H](c2cn3ncc([C@H](NC(=O)CCC(F)(F)F)C4CC4)cc3n2)C2CCC(F)(F)CC2)n1 [Example 230, N—((S)-(7-((R)-Cyclopropyl(4,4,4-trifluorobutanamido)methyl)imidazo[1,2-b]pyridazin-2-yl)(4,4-difluorocyclohexyl)methyl)-6-(1,1-difluoroethyl)picolinamide] | 2000 nM | > 20000 nM |
| O=C(CCC(F)(F)F)N[C@@H](c1cnn2cc([C@@H](NC(=O)c3ccccc3CC(F)(F)F)C3CCC(F)(F)CC3)nc2c1)C1CC1 [Example 231, N—((S)-(7-((R)-Cyclopropyl(4,4,4-trifluorobutanamido)methyl)imidazo[1,2-b]pyridazin-2-yl)(4,4-difluorocyclohexyl)methyl)-2-(2,2,2-trifluoroethyl)benzamide] | 320 nM | > 20000 nM |
| CCOc1nocc1C(=O)N[C@H](c1cn2ncc([C@H](NC(=O)CCC(F)(F)F)C3CC3)cc2n1)C1CCC(F)(F)CC1 [Example 238, N—((S)-(7-((R)-Cyclopropyl(4,4,4-trifluorobutanamido)methyl)imidazo[1,2-b]pyridazin-2-yl)(4,4-difluorocyclohexyl)methyl)-3-ethoxyisoxazole-4-carboxamide] | 190 nM | 830 nM |
| COc1nocc1C(=O)N[C@H](c1cn2ncc([C@H](NC(=O)CCC(F)(F)F)C3CC3)cc2n1)C1CCC(F)(F)CC1 [Example 239, N—((S)-(7-((R)-Cyclopropyl(4,4,4-trifluorobutanamido)methyl)imidazo[1,2-b]pyridazin-2-yl)(4,4-difluorocyclohexyl)methyl)-3-methoxyisoxazole-4-carboxamide] | 430 nM | 1300 nM |
| O=C(CCC(F)(F)F)N[C@@H](c1cnn2cc([C@@H](NC(=O)c3ccnn3C3CC3)C3CCC(F)(F)CC3)nc2c1)C1CC1 [Example 240, 1-Cyclopropyl-N—((S)-(7-((R)-cyclopropyl(4,4,4-trifluorobutanamido)methyl)imidazo[1,2-b]pyridazin-2-yl)(4,4-difluorocyclohexyl)methyl)-1H-pyrazole-5-carboxamide] | 130 nM | 210 nM |
| CC(C)n1nccc1C(=O)N[C@H](c1cn2ncc([C@H](NC(=O)CC3(C(F)(F)F)CC3)C3CC3)cc2n1)C1CCC(F)(F)CC1 [Example 244, N—((S)-(7-((R)-Cyclopropyl(2-(1-(trifluoromethyl)cyclopropyl)acetamido)methyl)imidazo[1,2-b]pyridazin-2-yl)(4,4-difluorocyclohexyl)methyl)-1-isopropyl-1H-pyrazole-5-carboxamide] | 140 nM | 120 nM |
| Cc1nonc1C(=O)N[C@H](c1cn2ncc([C@H](NC(=O)CC3(C(F)(F)F)CC3)C3CC3)cc2n1)C1CCC(F)(F)CC1 [Example 245, N—((S)-(7-((R)-Cyclopropyl(2-(1-(trifluoromethyl)cyclopropyl)acetamido)methyl)imidazo[1,2-b]pyridazin-2-yl)(4,4-difluorocyclohexyl)methyl)-4-methyl-1,2,5-oxadiazole-3-carboxamide] | 140 nM | 290 nM |

The next compounds have a lower IC50 [1] than those just listed; values first:

| IC50 [1] | SMILES | IC50 [2] |
| --- | --- | --- |
| 43 nM | CC(C)c1oncc1C(=O)N[C@H](c1cn2ncc([C@H](NC(=O)CCC(F)(F)F)C3CC3)cc2n1)C1CCC(F)(F)CC1 [Example 232, N—((S)-(7-((R)-Cyclopropyl(4,4,4-trifluorobutanamido)methyl)imidazo[1,2-b]pyridazin-2-yl)(4,4-difluorocyclohexyl)methyl)-5-isopropylisoxazole-4-carboxamide] | 65 nM |
| 47 nM | [2H]C([2H])([2H])C([2H])([2H])n1nccc1C(=O)N[C@H](c1cn2ncc([C@H](NC(=O)CCC(F)(F)F)C3CC3)cc2n1)C1CCC(F)(F)CC1 [Example 233, N—((S)-(7-((R)-Cyclopropyl(4,4,4-trifluorobutanamido)methyl)imidazo[1,2-b]pyridazin-2-yl)(4,4-difluorocyclohexyl)methyl)-1-(ethyl-d5)-1H-pyrazole-5-carboxamide] | 51 nM |
| 85 nM | [2H]C([2H])([2H])C([2H])([2H])n1nccc1C(=O)N[C@H](c1cn2ncc([C@H](NC(=O)CC3CC(F)(F)C3)C3CC3)cc2n1)C1CCC(F)(F)CC1 [Example 234, N—((S)-(7-((R)-Cyclopropyl(2-(3,3-difluorocyclobutyl)acetamido)methyl)imidazo[1,2-b]pyridazin-2-yl)(4,4-difluorocyclohexyl)methyl)-1-(ethyl-d5)-1H-pyrazole-5-carboxamide] | 52 nM |
| 100 nM | O=C(CCC(F)(F)F)N[C@@H](c1cnn2cc([C@@H](NC(=O)c3conc3C3COC3)C3CCC(F)(F)CC3)nc2c1)C1CC1 [Example 235, N—((S)-(7-((R)-Cyclopropyl(4,4,4-trifluorobutanamido)methyl)imidazo[1,2-b]pyridazin-2-yl)(4,4-difluorocyclohexyl)methyl)-3-(oxetan-3-yl)isoxazole-4-carboxamide] | 220 nM |
| 46 nM | O=C(CCC(F)(F)F)N[C@@H](c1cnn2cc([C@@H](NC(=O)c3conc3CC3CC3)C3CCC(F)(F)CC3)nc2c1)C1CC1 [Example 236, N—((S)-(7-((R)-Cyclopropyl(4,4,4-trifluorobutanamido)methyl)imidazo[1,2-b]pyridazin-2-yl)(4,4-difluorocyclohexyl)methyl)-3-(cyclopropylmethyl)isoxazole-4-carboxamide] | 360 nM |
| 52 nM | O=C(CCC(F)(F)F)N[C@@H](c1cnn2cc([C@@H](NC(=O)c3conc3COC(F)F)C3CCC(F)(F)CC3)nc2c1)C1CC1 [Example 237, N—((S)-(7-((R)-Cyclopropyl(4,4,4-trifluorobutanamido)methyl)imidazo[1,2-b]pyridazin-2-yl)(4,4-difluorocyclohexyl)methyl)-3-((difluoromethoxy)methyl)isoxazole-4-carboxamide] | 88 nM |
| 90 nM | CC(C)n1nccc1C(=O)N[C@H](c1cn2ncc([C@H](NC(=O)CC3CCC3)C3CC3)cc2n1)C1CCC(F)(F)CC1 [Example 246, N—((S)-(7-((R)-(2-Cyclobutylacetamido)(cyclopropyl)methyl)imidazo[1,2-b]pyridazin-2-yl)(4,4-difluorocyclohexyl)methyl)-1-isopropyl-1H-pyrazole-5-carboxamide] | 41 nM |
| 62 nM | Cc1nonc1C(=O)N[C@H](c1cn2ncc([C@H](NC(=O)CC3CCC3)C3CC3)cc2n1)C1CCC(F)(F)CC1 [Example 247, N—((S)-(7-((R)-(2-Cyclobutylacetamido)(cyclopropyl)methyl)imidazo[1,2-b]pyridazin-2-yl)(4,4-difluorocyclohexyl)methyl)-4-methyl-1,2,5-oxadiazole-3-carboxamide] | 190 nM |
